From PMC2850566 (Biochemical pharmacology, 2010)
pEC50: −log10 of the molar value. Where two headings read alike, the source gives them in different places.

Tests used:
human β2-AR = human β2-AR (Homo sapiens, UniProt P07550); settings: plotted from previously reported ΔH° and TΔS°; cited from earlier work
β2-AR = settings: cardiomyocytes; cited from earlier work
rat cardiomyocyte [1] = settings: read-out: EC50cardio; rat cardiomyocyte contractility; cited from earlier work
rat cardiomyocyte [2] = experiment: Rat cardiomyocyte contractility model; type: cell-based; settings: read-out: EC50cardio, authors' unpublished data

human β2-AR, sequence (P07550 whole entry): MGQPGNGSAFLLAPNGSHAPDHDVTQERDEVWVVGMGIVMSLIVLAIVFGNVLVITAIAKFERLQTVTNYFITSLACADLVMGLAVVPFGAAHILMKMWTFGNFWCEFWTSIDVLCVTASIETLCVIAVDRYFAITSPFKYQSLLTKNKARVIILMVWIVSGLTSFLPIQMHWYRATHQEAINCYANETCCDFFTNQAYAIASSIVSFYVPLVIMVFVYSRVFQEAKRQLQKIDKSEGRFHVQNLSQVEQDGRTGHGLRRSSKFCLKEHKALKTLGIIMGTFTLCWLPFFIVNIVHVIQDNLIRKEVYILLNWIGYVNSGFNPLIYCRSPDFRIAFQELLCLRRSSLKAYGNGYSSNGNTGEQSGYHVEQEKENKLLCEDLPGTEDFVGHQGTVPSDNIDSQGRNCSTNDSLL

Structure (SMILES) | Quadrant in the TΔS° and ΔH° plot (human β2-AR) | β2-AR coupling preference for G-proteins (β2-AR) | pEC50 (rat cardiomyocyte [1]) | pEC50 (rat cardiomyocyte [2])
CC(Cc1ccc(O)cc1)NCC(O)c1cc(O)cc(O)c1 (racemic) [rac-fenoterol] | enthalpy-entropy driven process | – | – | –
CC(Cc1ccc(O)cc1)NCC(O)c1cc(O)cc(O)c1 [(R,R')-fenoterol] | – | preferentially activates Gs signaling | 7.14 | –
C[C@@H](Cc1ccc(O)cc1)NC[C@H](O)c1cc(O)cc(O)c1 [(R,S')-fenoterol] | – | – | 6.24 | –
C[C@H](Cc1ccc(O)cc1)NC[C@@H](O)c1cc(O)cc(O)c1 [(S,R')-fenoterol] | – | activates both Gs and Gi proteins | 5.63 | –
CC(Cc1ccc(O)cc1)NCC(O)c1cc(O)cc(O)c1 [(S,S')-fenoterol] | – | – | – | 4.26
